According to patent US11260100B2, “Compositions targeting the interaction domain between p27Kip1 and Brk and methods of use thereof to inhibit p27 Y phosphorylation and cdk4 activity” (The Research Foundation for the State University of New York, priority 2014, dated 2022):

Legend:
MCF7 breast cancer cells = test: Proliferation with ALT and Palbociclib at IC50 concentration (FIG. 9); format: cell-based, human; details: drugs at IC50 concentration, replaced every two days
Protocol: FIGS. 9A-9B: AltBrk Synergizes with Palbociclib. ALT, Palbociclib, or Brk alone or in combination were added to or expressed in MCF7 breast cancer cells on day 2 post plating. Drugs were added at their IC50 concentration, based on previous results. ALT is expressed from an ALT-MCF7 tetracycline inducible cell line generated in the Blain lab. When tetracycline is added to the cell culture media, ALT is expressed in these cells. Vector: no tetracycline was added, so no ALT induction was detected. (FIG. 9A) Cells were harvested and counted every two days, as a measure of proliferation. Proliferation is plotted as a percentage relative to that seen in the DMSO treated control. Drugs and media were replaced every two days. (FIG. 9B) Viability was measured by trypan blue staining, and plotted relative to viability seen in the DMSO treated control.
(§1) Additional experiments were performed assessing activity of Brk in combination with Palbociclib. The data presented in FIGS. 9A and 9B reveal that Palbociclib and Brk inhibit proliferation for 2 days, and then resistance is observed (proliferation increases). Alt maintained arrest for roughly 10 days (50% inhibition of proliferation is detected). […] Alt-Brk/Palbociclib combination leads to a more durable cell cycle arrest. Mono therapy treated cells start to become resistant between day 8-10. […]

cdk2 = molecular target: T1, cdk2 (Homo sapiens, UniProt P24941); test: Immunoblot of cdk2T160 as measure of activated cdk2 (FIG. 10); format: cell-based; details: MCF7, drugs at IC50
T1 construct: added to or expressed in MCF7 breast cancer cells on day 2 post plating; endogenous in cells; host or cells: MCF7 (ALT-MCF7 tetracycline-inducible line)
Protocol: FIG. 10: ALT BRK inhibits both CDK4 and CDK2. ALT, Palbociclib alone or in combination were added to or expressed in MCF7 breast cancer cells on day 2 post plating. Drugs were added at their IC50 concentration, based on previous results. ALT is expressed from an ALT-MCF7 tetracycline inducible cell line generated in the Blain lab. When tetracycline is added to the cell culture media, ALT is expressed in these cells. Vector: no tetracycline was added, so no ALT induction was detected. Drugs and media were replaced every two days. Cells were harvested every two days, lysed and used in immunoblot analysis. Actin: loading control. pRBser780 is a phospho-specific antibody that recognizes sites phosphorylated by cdk4, so is a measure of active cdk4. cdk2T160 recognizes a required phosphorylation event on residue […] and is a measure of activated cdk2.
as §1

HCC1954 (ER/PR-, Her2+) = test: Palbociclib sensitivity of breast cancer line; format: cell-based; details: Homo sapiens; HCC1954, non-responder
MCF7 (ER/PR+, Her2-) = test: Palbociclib sensitivity of breast cancer line; format: cell-based; details: Homo sapiens; MCF7, high responder
MCF7-ALT cells = test: Long-term proliferation arrest at IC100 (FIG. 15A); format: cell-based, human; details: IC100 Palbociclib, doxycycline induced ALT, replenished every two days
Protocol: FIGS. 15A-15C: ALT and PD treatment increases senescence, a clinical goal. FIG. 15A: MCF7-ALT cells were treated with IC100 concentration of Palbociclib (PD) or doxycycline to induce ALT. Drugs were replenished every two days and proliferation was determined by cell counting as indicated. Proliferation rates were standardized to the rate of proliferation seen in DMSO treated cells (control). PD treated cells were arrested for 10 days, before escape (proliferation) was detected. ALT expressing cells were arrested for 18 days before escape (proliferation) was detected. ALT expressing and PD treated cells were arrested for 30 days, with no escape detected. […] Proliferation was assessed by counting. […] Viability was measured by trypan blue staining and the ALT expressing, PD treated cells that weren't growing were viable. […]
MCF7-ALT cells were treated with a IC100 concentration of Palbociclib (PD) or doxycycline to induce ALT. Drugs were replenished every two days and proliferation was determined by cell counting as indicated. […] PD treated cells were arrested for 10 days, before escape (proliferation) was detected. ALT expressing cells were arrested for 18 days before escape (proliferation) was detected. ALT expressing and PD treated cells were arrested for 30 days, with no escape detected. […] Proliferation was assessed by counting. […]

## CC(=O)c1c(C)c2cnc(Nc3ccc(N4CCNCC4)cn3)nc2n(C2CCCC2)c1=O [PD0332991]
MCF7 breast cancer cells
  duration of proliferation inhibition / arrest: 2 days
cdk2
  cdk2 activity (cdk2T160): does not inhibit cdk2
HCC1954 (ER/PR-, Her2+)
  IC50: > 1000 nM
MCF7 (ER/PR+, Her2-)
  IC50: 200 nM
MCF7-ALT cells
  time arrested before escape (proliferation): 10 days
